Experimental data: the supplement of paper PMC10307832

Legend:
Assay in all cases: relative viability (nuclei count vs DMSO), 5 days (fraction); higher = more cells survive
NCI-H2342 = tested on: NCI-H2342
Method in brief: (§1)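 Medians of duplicate plates are given as relative viability. That measure is the nuclei count in treated wells divided by the count in vehicle wells. Counts were taken on 4× images of lung cancer cell lines in 1536-well plates, 5 days after pin-tool dosing the day after seeding with one drug alone or a fixed anchor-drug dose plus five library-drug doses (not always all listed) in √10 steps.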

COR-L23 = tested on: COR-L23
Method in brief: as §1

NCI-H661 = tested on: NCI-H661
Method in brief: as §1

NCI-H1651 = tested on: NCI-H1651
Method in brief: as §1

LXF-289 = tested on: LXF-289
Method in brief: as §1

NCI-H1915 = tested on: NCI-H1915
Method in brief: as §1

NCI-H520 = tested on: NCI-H520
Method in brief: as §1

ABC-1 = tested on: ABC-1
Method in brief: as §1

NCI-H2347 = tested on: NCI-H2347
Method in brief: as §1

COR-L 105 = tested on: COR-L 105
Method in brief: as §1

LCLC-97TM1 = tested on: LCLC-97TM1
Method in brief: as §1

NCI-H460 = tested on: NCI-H460
Method in brief: as §1

CAL-12T = tested on: CAL-12T
Method in brief: as §1

HOP-62 = tested on: HOP-62
Method in brief: as §1

NCI-H838 = tested on: NCI-H838
Method in brief: as §1

NCI-H1993 = tested on: NCI-H1993
Method in brief: as §1

NCI-H441 = tested on: NCI-H441
Method in brief: as §1

NCI-H522 = tested on: NCI-H522
Method in brief: as §1

NCI-H1437 = tested on: NCI-H1437
Method in brief: as §1

NCI-H2023 = tested on: NCI-H2023
Method in brief: as §1

NCI-H2009 = tested on: NCI-H2009
Method in brief: as §1

PC-3 [JPC-3] = tested on: PC-3 [JPC-3]
Method in brief: as §1

A-427 = tested on: A-427
Method in brief: as §1

SMILES: C=C1C(=O)O[C@@H](CCCCCCCC)[C@@H]1C(=O)O [C-75] + O=C(c1cc(Cc2n[nH]c(=O)c3ccccc23)ccc1F)N1CCN(C(=O)C2CC2)CC1 [Olaparib] (partner 8 µM)
- relative viability (NCI-H2342; first compound 0.08 µM): 0.503
- relative viability (NCI-H2342; first compound 0.253 µM): 0.49
- relative viability (NCI-H2342; first compound 0.8 µM): 0.374
- relative viability (NCI-H2342; first compound 2.53 µM): 0.38
- relative viability (NCI-H2342; first compound 8 µM): 0.454
- relative viability (COR-L23; first compound 0.08 µM): 0.353
- relative viability (COR-L23; first compound 0.253 µM): 0.216
- relative viability (COR-L23; first compound 0.8 µM): 0.284
- relative viability (COR-L23; first compound 2.53 µM): 0.325
- relative viability (COR-L23; first compound 8 µM): 0.319
- relative viability (NCI-H661; first compound 0.08 µM): 0.725
- relative viability (NCI-H661; first compound 0.253 µM): 0.805
- relative viability (NCI-H661; first compound 0.8 µM): 0.693
- relative viability (NCI-H661; first compound 2.53 µM): 0.66
- relative viability (NCI-H661; first compound 8 µM): 0.699
- relative viability (NCI-H1651; first compound 0.08 µM): 0.196
- relative viability (NCI-H1651; first compound 0.253 µM): 0.206
- relative viability (NCI-H1651; first compound 0.8 µM): 0.189
- relative viability (NCI-H1651; first compound 2.53 µM): 0.173
- relative viability (NCI-H1651; first compound 8 µM): 0.167
- relative viability (LXF-289; first compound 0.08 µM): 1.05
- relative viability (LXF-289; first compound 0.253 µM): 1.11
- relative viability (LXF-289; first compound 0.8 µM): 1.01
- relative viability (LXF-289; first compound 2.53 µM): 0.992
- relative viability (LXF-289; first compound 8 µM): 1.06
- relative viability (NCI-H1915; first compound 0.08 µM): 0.243
- relative viability (NCI-H1915; first compound 0.253 µM): 0.242
- relative viability (NCI-H1915; first compound 0.8 µM): 0.261
- relative viability (NCI-H1915; first compound 2.53 µM): 0.262
- relative viability (NCI-H1915; first compound 8 µM): 0.257
- relative viability (NCI-H520; first compound 0.08 µM): 0.343
- relative viability (NCI-H520; first compound 0.253 µM): 0.358
- relative viability (NCI-H520; first compound 0.8 µM): 0.269
- relative viability (NCI-H520; first compound 2.53 µM): 0.321
- relative viability (NCI-H520; first compound 8 µM): 0.257
- relative viability (ABC-1; first compound 0.08 µM): 0.862
- relative viability (ABC-1; first compound 0.253 µM): 0.703
- relative viability (ABC-1; first compound 0.8 µM): 0.811
- relative viability (ABC-1; first compound 2.53 µM): 0.719
- relative viability (ABC-1; first compound 8 µM): 0.792
- relative viability (NCI-H2347; first compound 0.08 µM): 0.552
- relative viability (NCI-H2347; first compound 0.253 µM): 0.514
- relative viability (NCI-H2347; first compound 0.8 µM): 0.532
- relative viability (NCI-H2347; first compound 2.53 µM): 0.539
- relative viability (NCI-H2347; first compound 8 µM): 0.614
- relative viability (COR-L 105; first compound 0.08 µM): 0.719
- relative viability (COR-L 105; first compound 0.253 µM): 0.75
- relative viability (COR-L 105; first compound 0.8 µM): 0.668
- relative viability (COR-L 105; first compound 2.53 µM): 0.62
- relative viability (COR-L 105; first compound 8 µM): 0.523
- relative viability (LCLC-97TM1; first compound 0.08 µM): 0.349
- relative viability (LCLC-97TM1; first compound 0.253 µM): 0.402
- relative viability (LCLC-97TM1; first compound 0.8 µM): 0.494
- relative viability (LCLC-97TM1; first compound 2.53 µM): 0.338
- relative viability (LCLC-97TM1; first compound 8 µM): 0.303
- relative viability (NCI-H460; first compound 0.08 µM): 0.413
- relative viability (NCI-H460; first compound 0.253 µM): 0.503
- relative viability (NCI-H460; first compound 0.8 µM): 0.366
- relative viability (NCI-H460; first compound 2.53 µM): 0.356
- relative viability (NCI-H460; first compound 8 µM): 0.377
- relative viability (CAL-12T; first compound 0.08 µM): 0.774
- relative viability (CAL-12T; first compound 0.253 µM): 0.796
- relative viability (CAL-12T; first compound 0.8 µM): 0.788
- relative viability (CAL-12T; first compound 2.53 µM): 0.766
- relative viability (CAL-12T; first compound 8 µM): 0.793
- relative viability (HOP-62; first compound 0.08 µM): 0.532
- relative viability (HOP-62; first compound 0.253 µM): 0.5
- relative viability (HOP-62; first compound 0.8 µM): 0.321
- relative viability (HOP-62; first compound 2.53 µM): 0.372
- relative viability (HOP-62; first compound 8 µM): 0.393
- relative viability (NCI-H838; first compound 0.08 µM): 0.778
- relative viability (NCI-H838; first compound 0.253 µM): 0.757
- relative viability (NCI-H838; first compound 0.8 µM): 0.738
- relative viability (NCI-H838; first compound 2.53 µM): 0.725
- relative viability (NCI-H838; first compound 8 µM): 0.654
- relative viability (NCI-H1993; first compound 0.08 µM): 1.02
- relative viability (NCI-H1993; first compound 0.253 µM): 1.34
- relative viability (NCI-H1993; first compound 0.8 µM): 0.676
- relative viability (NCI-H1993; first compound 2.53 µM): 1.05
- relative viability (NCI-H1993; first compound 8 µM): 1.17
- relative viability (NCI-H441; first compound 0.08 µM): 0.487
- relative viability (NCI-H441; first compound 0.253 µM): 0.391
- relative viability (NCI-H441; first compound 0.8 µM): 0.528
- relative viability (NCI-H441; first compound 8 µM): 0.486
- relative viability (NCI-H522; first compound 0.08 µM): 0.592
- relative viability (NCI-H522; first compound 0.253 µM): 0.733
- relative viability (NCI-H522; first compound 0.8 µM): 0.662
- relative viability (NCI-H522; first compound 2.53 µM): 0.66
- relative viability (NCI-H522; first compound 8 µM): 0.547
- relative viability (NCI-H1437; first compound 0.08 µM): 0.614
- relative viability (NCI-H1437; first compound 0.253 µM): 0.684
- relative viability (NCI-H1437; first compound 0.8 µM): 0.642
- relative viability (NCI-H1437; first compound 8 µM): 0.648
- relative viability (NCI-H2023; first compound 0.08 µM): 0.529
- relative viability (NCI-H2023; first compound 0.253 µM): 0.579
- relative viability (NCI-H2023; first compound 0.8 µM): 0.436
- relative viability (NCI-H2023; first compound 8 µM): 0.395
- relative viability (NCI-H2009; first compound 0.08 µM): 0.67
- relative viability (NCI-H2009; first compound 0.253 µM): 0.654
- relative viability (NCI-H2009; first compound 0.8 µM): 0.623
- relative viability (NCI-H2009; first compound 2.53 µM): 0.488
- relative viability (NCI-H2009; first compound 8 µM): 0.521
- relative viability (PC-3 [JPC-3]; first compound 0.08 µM): 1.13
- relative viability (PC-3 [JPC-3]; first compound 0.253 µM): 1.02
- relative viability (PC-3 [JPC-3]; first compound 0.8 µM): 1.11
- relative viability (PC-3 [JPC-3]; first compound 2.53 µM): 1.03
- relative viability (PC-3 [JPC-3]; first compound 8 µM): 1.2
- relative viability (A-427; first compound 0.08 µM): 0.718
- relative viability (A-427; first compound 0.253 µM): 0.69
- relative viability (A-427; first compound 0.8 µM): 0.678
- relative viability (A-427; first compound 2.53 µM): 0.708
- relative viability (A-427; first compound 8 µM): 0.597
